This is an account of results in US20260250289A1, “BICYCLIC HETEROCYCLES AND THEIR USE AS WRN INHIBITORS” (Novartis AG, priority 2022, published 2026).

Usually IC50 stands for the concentration that inhibits the measured activity by half. A high value points to weaker potency.

The subject of test [1] is SW48 cells. The test is described as follows: Proliferation assay SW48 (CellTiterGlo). Format: cell-based. The conditions noted are these: Homo sapiens, SW48, 96 h, SW48 colon carcinoma cells, 96 hours, CellTiterGlo; geometric mean of at least 2; read-out: Proliferation Assay SW48 GI50. The procedure, abridged: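 SW48 cells, 2,000/well, treated after overnight seeding with eight 3-fold compound dilutions (0.1% DMSO) for 96 hours at 37° C. Viability read as ATP by CellTiterGlo luminescence, normalised to a day-0 plate and vehicle to give % growth; GI50 is geometric mean of ≥2 independent replicates.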
(In general: ATP-based viability assays read luminescence as a measure of living cells.)

In test [2] the test system is DLD1-WRN-KO cells. The test is described as follows: Proliferation assay DLD1-WRN-KO (CellTiterGlo, off-target effects). Format: cell-based. The conditions noted are these: 96 hours, geometric mean of at least 2. The procedure, abridged: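 DLD1 cells with CRISPR knockout of WRN were exposed overnight-seeded to eight 3-fold compound dilutions (0.1% DMSO) for 96 h at 37 °C. Viability was read as ATP by CellTiterGlo luminescence against a day-0 plate, giving GI50 and residual viability at top concentration.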

Test [3] concerns the target T1, WRN helicase (aa N517-P1238) (Homo sapiens, UniProt Q14191).
T1 construct: The core helicase motif of the WRN protein (aa N517-P1238) was produced for this assay; His (N); ZZ (N); 3C protease cleavage site (N); made in house; host or cells: Sf21 insect cells (baculovirus; virus and BIICs made in SF9)
In words: WRN ATPase assay (DNA dependent ATP hydrolysis, ADP-Glo). The class given is biochemical. The conditions noted are these: 3 hours pre-incubation, 300 micromolar ATP, FLAP26 DNA; geometric mean of at least 2. The method, boiled down: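 DNA-dependent ATP hydrolysis detected as ADP by ADP-Glo luminescence, using 300 μM ATP, 0.2 nM FLAP26 substrate and 10 nM WRN aa N517-P1238 (Tris pH 7.5 buffer, 2 mM MgCl2, 50 mM NaCl). IC50s fitted from normalized duplicate half-log dilutions; reported as geometric means of at least 2 replicates.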
(ADP-Glo first removes unused ATP, then detects ADP through luciferase.)

T1 sequence (Q14191 517-1238): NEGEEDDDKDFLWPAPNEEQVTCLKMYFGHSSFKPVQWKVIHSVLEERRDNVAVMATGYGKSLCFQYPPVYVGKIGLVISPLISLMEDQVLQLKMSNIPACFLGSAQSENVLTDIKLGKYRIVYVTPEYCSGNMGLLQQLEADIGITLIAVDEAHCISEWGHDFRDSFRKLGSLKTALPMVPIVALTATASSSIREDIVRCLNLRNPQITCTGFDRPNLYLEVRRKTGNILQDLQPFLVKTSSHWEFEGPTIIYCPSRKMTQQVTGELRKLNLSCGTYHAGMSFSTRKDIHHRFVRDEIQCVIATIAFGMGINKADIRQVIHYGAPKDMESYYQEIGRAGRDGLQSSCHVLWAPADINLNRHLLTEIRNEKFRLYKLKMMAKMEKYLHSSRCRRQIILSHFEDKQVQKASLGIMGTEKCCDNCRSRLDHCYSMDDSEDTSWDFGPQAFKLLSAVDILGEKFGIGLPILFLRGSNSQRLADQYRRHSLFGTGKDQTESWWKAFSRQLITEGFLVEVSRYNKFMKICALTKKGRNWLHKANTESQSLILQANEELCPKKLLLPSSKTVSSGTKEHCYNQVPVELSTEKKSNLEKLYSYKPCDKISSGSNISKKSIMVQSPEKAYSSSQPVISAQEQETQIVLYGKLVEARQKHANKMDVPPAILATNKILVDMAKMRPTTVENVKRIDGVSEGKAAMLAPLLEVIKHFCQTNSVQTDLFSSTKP

As to `COCC1CCN(c2nc3n(CC(=O)Nc4ccc(C(F)(F)F)cc4)c(C)c(N4CCN(C(C)=O)CC4)c(=O)n3n2)C1` (stereo not drawn) [Example 133, 2-(6-(4-acetylpiperazin-1-yl)-2-(3-(methoxymethyl)pyrrolidin-1-yl)-5-methyl-7-oxo-[1,2,4]triazolo[1,5-a]pyrimidin-4(7H)-yl)-N-(4-(trifluoromethyl)phenyl)acetamide], the figures for the GI50 in test [1] and in test [2] were 6000 nM and above 10000 nM, respectively. Moreover, half-maximal inhibition in test [3] (IC50) was put at 2000 nM.
Taken in the same sequence, the figures for `CC(=O)N1CCN(c2c(C)n(CC(=O)Nc3ccc(C(F)(F)F)cc3)c3nc(C4=CCCO4)nn3c2=O)CC1` [Example 134, 2-(6-(4-acetylpiperazin-1-yl)-2-(4,5-dihydrofuran-2-yl)-5-methyl-7-oxo-[1,2,4]triazolo[1,5-a]pyrimidin-4(7H)-yl)-N-(4-(trifluoromethyl)phenyl)acetamide] were 5000 nM, above 10000 nM and 4000 nM.
The matching figures for `CC(=O)N1CCN(c2c(C)n(CC(=O)Nc3ccc(C(F)(F)F)cc3)c3nc(-c4cnc(C)o4)nn3c2=O)CC1` [Example 135, 2-(6-(4-acetylpiperazin-1-yl)-5-methyl-2-(2-methyloxazol-5-yl)-7-oxo-[1,2,4]triazolo[1,5-a]pyrimidin-4(7H)-yl)-N-(4-(trifluoromethyl)phenyl)acetamide]: above 10000 nM, above 10000 nM and 400 nM.
Taken in the same sequence, the figures for `Cc1c(C2CCN(C(=O)c3c(F)ccc(F)c3O)CC2)c(=O)n2nc(C3=CCOCC3)nc2n1CC(=O)Nc1ccc(C(F)(F)F)cc1` [Example 136, 2-(6-(1-(3,6-difluoro-2-hydroxybenzoyl)piperidin-4-yl)-2-(3,6-dihydro-2H-pyran-4-yl)-5-methyl-7-oxo-[1,2,4]triazolo[1,5-a]pyrimidin-4(7H)-yl)-N-(4-(trifluoromethyl)phenyl)acetamide] were 500 nM, above 10000 nM and 20 nM.
`Cc1c(C2CCN(C(=O)c3c(F)ccc(F)c3O)CC2)c(=O)n2nc(C3=CCCCO3)nc2n1CC(=O)Nc1ccc(C(F)(F)F)cc1` [Example 137, 2-(6-(1-(3,6-difluoro-2-hydroxybenzoyl)piperidin-4-yl)-2-(3,4-dihydro-2H-pyran-6-yl)-5-methyl-7-oxo-[1,2,4]triazolo[1,5-a]pyrimidin-4(7H)-yl)-N-(4-(trifluoromethyl)phenyl) acetamide]: the GI50 is 300 nM in test [1] and above 10000 nM in test [2]. This molecule had an IC50 in test [3] of 50 nM.
Turning to `CCc1c(C2CCN(C(C)=O)CC2)c(=O)n2nc(C3=CCCCO3)nc2n1CC(=O)Nc1ccc(C(F)(F)F)cc1` [Example 138, 2-(6-(1-acetylpiperidin-4-yl)-2-(3,4-dihydro-2H-pyran-6-yl)-5-ethyl-7-oxo-[1,2,4]triazolo[1,5-a]pyrimidin-4(7H)-yl)-N-(4-(trifluoromethyl)phenyl)acetamide], the figures for the GI50 in test [1] and in test [2] were 1000 nM and above 10000 nM, respectively. Further, the IC50 in test [3] is 80 nM.
The matching figures for `CCc1c(C2CCN(C(C)=O)CC2)c(=O)n2nc(C3=CCC(OC)CC3)nc2n1CC(=O)Nc1ccc(C(F)(F)F)cc1` (stereo not drawn) [Example 139, 2-(6-(1-acetylpiperidin-4-yl)-5-ethyl-2-(4-methoxycyclohex-1-en-1-yl)-7-oxo-[1,2,4]triazolo[1,5-a]pyrimidin-4(7H)-yl)-N-(4-(trifluoromethyl)phenyl)acetamide]: 1000 nM, above 10000 nM and 100 nM.
As for `CCc1c(C2=CCN(C(C)=O)CC2)c(=O)n2nc(C3=CCC(OC)CC3)nc2n1CC(=O)Nc1ccc(C(F)(F)F)cc1` (stereo not drawn) [Example 140, 2-(6-(1-acetyl-1,2,3,6-tetrahydropyridin-4-yl)-5-ethyl-2-(4-methoxycyclohex-1-en-1-yl)-7-oxo-[1,2,4]triazolo[1,5-a]pyrimidin-4(7H)-yl)-N-(4-(trifluoromethyl)phenyl)acetamide], the figures for the GI50 in test [1] and in test [2] were 4000 nM and above 10000 nM, respectively. The IC50 in test [3] amounted to 100 nM.
`CC(=O)N1CCC(c2c(C)n(CC(=O)Nc3ccc(C(F)(F)F)cc3)c3nc(C4=CCOCC4)nn3c2=O)CC1` [Example 141, 2-(6-(1-acetylpiperidin-4-yl)-2-(3,6-dihydro-2H-pyran-4-yl)-5-methyl-7-oxo-[1,2,4]triazolo[1,5-a]pyrimidin-4(7H)-yl)-N-(4-(trifluoromethyl)phenyl)acetamide]: the results for the GI50 in test [1] and in test [2] were 8000 nM and above 10000 nM, respectively. The molecule further registered an IC50 in test [3] of 400 nM.
Consider `CCc1c(C2=CCN(C(C)=O)CC2)c(=O)n2nc(C3=CCCCO3)nc2n1CC(=O)Nc1ccc(C(F)(F)F)cc1` [Example 142, 2-(6-(1-acetyl-1,2,3,6-tetrahydropyridin-4-yl)-2-(3,4-dihydro-2H-pyran-6-yl)-5-ethyl-7-oxo-[1,2,4]triazolo[1,5-a]pyrimidin-4(7H)-yl)-N-(4-(trifluoromethyl)phenyl)acetamide], for which the results for the GI50 in test [1] and in test [2] were 5000 nM and above 10000 nM, respectively. The same molecule displayed an IC50 in test [3] of 600 nM.
As for `Cc1c(C2CCN(C(=O)c3ccc(F)c(F)c3O)CC2)c(=O)n2nc(N3CCOCC3)nc2n1CC(=O)Nc1ccc(C(F)(F)F)cc1` [Example 146, 2-(6-(1-(3,4-difluoro-2-hydroxybenzoyl)piperidin-4-yl)-5-methyl-2-morpholino-7-oxo-[1,2,4]triazolo[1,5-a]pyrimidin-4(7H)-yl)-N-(4-(trifluoromethyl)phenyl)acetamide], the GI50 in test [1] is 4000 nM; in test [2] it was above 10000 nM. In test [3], this molecule registered an IC50 of 90 nM.
`CC(=O)N1CCN(c2c(C3CC3)n(CC(=O)Nc3ccc(C(F)(F)F)cc3)c3nc(C4=CCOCC4)nn3c2=O)CC1` [Example 147, 2-(6-(4-acetylpiperazin-1-yl)-5-cyclopropyl-2-(3,6-dihydro-2H-pyran-4-yl)-7-oxo-[1,2,4]triazolo[1,5-a]pyrimidin-4(7H)-yl)-N-(4-(trifluoromethyl)phenyl)acetamide]: the GI50 in test [1] was 6000 nM; in test [2], above 10000 nM. Moreover, half-maximal inhibition in test [3] (IC50) was put at 600 nM.
Taken in the same sequence, the figures for `Cc1c(N2CCN(C(=O)c3c(F)ccc(F)c3O)C(C)C2)c(=O)n2nc(C3=CCOCC3)nc2n1CC(=O)Nc1ccc(C(F)(F)F)cc1` (stereo not drawn) [Example 148, 2-(6-(4-(3,6-difluoro-2-hydroxybenzoyl)-3-methylpiperazin-1-yl)-2-(3,6-dihydro-2H-pyran-4-yl)-5-methyl-7-oxo-[1,2,4]triazolo[1,5-a]pyrimidin-4(7H)-yl)-N-(4-(trifluoromethyl)phenyl)acetamide] were 300 nM, above 10000 nM and 60 nM.
Taken in the same sequence, the figures for `Cc1c(N2CCN(C(=O)c3c(O)cccc3Cl)CC2)c(=O)n2nc(C3=CCOCC3)nc2n1CC(=O)Nc1ccc(C(F)(F)F)cc1` [Example 149, 2-(6-(4-(2-chloro-6-hydroxybenzoyl)piperazin-1-yl)-2-(3,6-dihydro-2H-pyran-4-yl)-5-methyl-7-oxo-[1,2,4]triazolo[1,5-a]pyrimidin-4(7H)-yl)-N-(4-(trifluoromethyl)phenyl)acetamide] were 2000 nM, above 10000 nM and 90 nM.
